Reference: patent US20220168427A1 (Ranok Therapeutics (Hangzhou) Co. Ltd., priority 2019, published 2022)

How the values were obtained:
HSP90α = HSP90α (Homo sapiens, UniProt P07900); assay: HSP90α Binding Fluorescent Polarization (FP) Assay; conditions: competition with FITC-geldanamycin; read-out: HSP90 Binding Potency
Summary of the method: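 Duplicate wells held BSA buffer, FITC-geldanamycin tracer, compound (3-fold dilution plate spanning 40 μM–2.0 nM) and recombinant protein diluted to 28 μg/ml before addition. Polarization read at 30, 60 and 120 min, 25 °C. Background-corrected mP values gave IC50 through a four-parameter inhibitor-response fit.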

BRD4 (BD1+BD2) = target: T1, BRD4 (BD1+BD2) (Homo sapiens, UniProt O60885); conditions: read-out: BRD4 Binding Potency
T1 construct: 1.8 μg/ml recombinant BRD4 (BD1+BD2 domains) protein

BRD4 = target: T2, BRD4 (Homo sapiens, UniProt O60885); assay: BRD4 Degradation Flow Cytometry Assay in MV4-11 cells; format: cell-based; conditions: 24 hr
T2 construct: endogenous in cells; host or cells: MV4-11
Description: Protein Degradation Flow Cytometry
MV4-11 cells were plated in a 24-well tissue culture plate at a density of 350,000 cells/450 μL/well and incubated in 37° C./5% CO2 for 1 hr. Cells were then treated with compounds at various concentrations and incubated in 37° C./5% CO2 for 24 hr. Cells were harvested, washed once, counted and 200 μL of 1% paraformaldehyde/PBS was added and incubated for 15 min at room temperature. 200 μL of 1×PBS/0.4% Triton X-100 was added and incubated for 15 min at 4° C. Cells were washed three times and resuspended in 50 μL of 1×PBS/0.2% Triton X-100. 2 μL/10^6 cells of anti-BRD4 antibody (ABCAM, #128874) was added and mixed by pipetting up and down. Cells were incubated for 30 min at room temperature in the dark, washed three times and resuspended in 50 μL of 1×PBS/0.2% Triton X-100. Goat anti-rabbit IgG H&L antibody (1:2000 dilution) was added and mixed by pipetting up and down and incubated for 30 min at room temperature in the dark. Finally, cells were washed three times and resuspended in 200 μL of PBS for flow cytometric analysis.
(§1) % Inhibition=100−(D−B)/(S−B)*100%.
S: The fluorescence intensity of MV4-11 with antibody
D: The fluorescence intensity in the presence of different compound dilutions with antibody
B: The fluorescence intensity of MV4-11 only

MV4-11 cells = assay: MV4-11 Cell Cytotoxicity Assay; format: cell-based, human; conditions: human, MV4-11 cells, CCK-8
Source text: as §1
S: The absorbance of the maximum (cells with DMSO)
B: The absorbance of the minimum (medium with DMSO)

MV4-11 xenograft = assay: MV4-11 AML tumor xenograft study in mice
Description: Tumor Xenograft Studies in Mice
MV4-11 acute myeloid leukemia and SU-DHL-4 diffuse large B-cell lymphoma (ATCC, #CRL-2957) cells were cultured in medium supplemented with 10% fetal bovine serum at 37° C./5% CO2. 5×10^6 MV-4-11 or 1×10^7 SU-DHL-4 cells were collected and re-suspended in 0.1 mL of serum-free media with Matrigel (1:1 v/v) per mouse for subcutaneous inoculation in isoflurane anesthetized male BALB/c nude or C.B-17 scid mice, respectively (treated in accordance with AAALAC animal welfare guidelines). When the average tumor volumes reached 100-200 mm^3, tumor volume outliers were removed and the remaining animals randomly divided into groups of 6-8 with similar average tumor volumes in each group. […] […] The appearance and behavior of each mouse was observed and recorded daily. Body weights and tumor volumes were measured and recorded every 2-4 days and the results were expressed as group means±SEM. Pairwise statistical comparisons between groups were performed by one-way ANOVA, and p<0.05 was considered statistically significant.

Compound	IC50 (HSP90α)	IC50 (BRD4 (BD1+BD2))	BRD4 degradation in flow cytometry assay, in words (BRD4)	degradation of BRD2, BRD3 and BRD4, in words (BRD4; flow cytometry)	IC50 at 72 h (MV4-11 cells)	tumor growth inhibition (MV4-11 xenograft; 25 mg/kg intraperitoneal dosing 1×/day)	animal deaths and body weights (MV4-11 xenograft; any group)
Cc1sc2c(c1C)C(c1ccc(Cl)cc1)=N[C@H](CC(=O)N1CCC(CN3CCN(Cc4ccc(-n5c(O)nnc5-c5cc(C(C)C)c(O)cc5O)cc4)CC3)CC1)c1nnc(C)n1-2 [Compound 5, 2-((6R)-4-(4-chlorophenyl)-2,3,9-trimethyl-6H-thieno[3,2-f][1,2,4]triazolo[4,3-a][1,4]diazepin-6-yl)-1-(4-((4-(4-(3-(2,4-dihydroxy-5-isopropylphenyl)-5-hydroxy-4H-1,2,4-triazol-4-yl)benzyl)piperazin-1-yl)methyl)piperidin-1-yl)ethanone, trifluoroacetic acid]	100 to 1000 nM	> 1000 nM	does not degrade BRD4				
Cc1sc2c(c1C)C(c1ccc(Cl)cc1)=N[C@@H](CC(=O)NCC(=O)NCC1CCN(C(=O)C3CCN(Cc4ccc(-n5c(O)nnc5-c5cc(C(C)C)c(O)cc5O)cc4)CC3)C1)c1nnc(C)n1-2 (stereo partly drawn) [Compound 47, 2-((S)-4-(4-chlorophenyl)-2,3,9-trimethyl-6H-thieno[3,2-f][1,2,4]triazolo[4,3-a][1,4]diazepin-6-yl)-N-(2-(((1-(1-(4-(3-(2,4-dihydroxy-5-isopropylphenyl)-5-hydroxy-4H-1,2,4-triazol-4-yl)benzyl)piperidine-4-carbonyl)pyrrolidin-3-yl)methyl)amino)-2-oxoethyl)acetamide, trifluoroacetic acid]	< 100 nM	< 100 nM		only induced significant degradation of BRD4	< 100 nM		
CC(=O)N1CCC(CN2CCN(Cc3ccc(-n4c(O)nnc4-c4cc(C(C)C)c(O)cc4O)cc3)CC2)CC1 [HSP90 binder, 1-(4-((4-(4-(3-(2,4-dihydroxy-5-isopropylphenyl)-5-hydroxy-4H-1,2,4-triazol-4-yl)benzyl)piperazin-1-yl)methyl)piperidin-1-yl)ethan-1-one, reference compound]			no substantial BRD4 degradation was observed				
(+)-JQ1 [reference compound]			no substantial BRD4 degradation was observed			moderate tumor growth inhibition	No animal deaths or significant effects on body weights were observed
